This is an account of results in PubChem BioAssay (NCI).

What all share (test): inhibition of tumour cell growth, NCI panel, 48 h
For assay [1], the system named is IGROV1 ovarian.
Assay [2] concerns NCI-H226 lung.
Assay [3] relates to U251 CNS.
The subject of assay [4] is HOP-92 NSCLC.
Assay [5] concerns T-47D breast.
For assay [6], the system named is UACC-257 melanoma.
The test system of assay [7] is MALME-3M melanoma.
The test system of assay [8] is MDA-MB-231 breast.
For assay [9], the system named is LOX IMVI melanoma.
Assay [10] relates to K-562 leukemia.

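Five compound concentrations were applied to cells in 96-well plates for 48 hours; endpoints were derived by simple linear interpolation of the resulting dose-response curve. TGI marks complete inhibition of growth.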 Where a SMILES comes first, the peptide text is derived from it. Bridges are numbered along the chain shown (N, C = ends). [ ]: non-standard residue; d: D form. The star is where a group is joined. ξ: configuration not given here. X26 = O=C(/C=C/C=C/C=C/C=C/C=C/C(=O)*)NC1=C(O)CCC1=O; NMeA = CN[C@@H](C)C(=O)O; ξF = NC(Cc1ccccc1)C(=O)O; ξA = CC(N)C(=O)O

`C[C@]12CC[C@@H]3c4ccc(O)cc4CC[C@H]3[C@@H]1C/C(=C\c1ccncc1)[C@@H]2O`: the TGI in [1] was 28.7 µM; in assay [2] it was 42.1 µM; in assay [3] it was 39.6 µM; in assay [4] it was 32 µM; in assay [5], 13.8 µM; in assay [6], > 100 µM. Besides, the TGI in assay [7] was found to be 30.9 µM; in [8] it was 41.2 µM.

Turning to `O=c1[nH]cnc2c1ncn2[C@@H]1C[C@@H]1CO`, the TGI in assay [1], in assay [2], in [3], in assay [4], in assay [9] and in assay [5] was > 100 µM throughout. Also, the TGI in [6], in assay [7], in assay [8] and in assay [10] was > 100 µM each time.

With `CC1CN=C(N(C(=O)Nc2ccc(F)c(Cl)c2)c2ccccc2)S1` (configuration not stated), the TGI in [1] is > 100 µM; in [3] it was 50.5 µM; in assay [4], 48.1 µM; in assay [9], 32.5 µM; in assay [5], > 100 µM; in assay [6], 58.7 µM. For the same compound, the results for the TGI in assay [7], in [8] and in assay [10] were 78.5 µM, 38.9 µM and > 100 µM, respectively.

As to `CCOC(=O)C(Cl)(Cl)/S(=N\S(=O)(=O)c1ccccc1)NC(=O)c1ccccc1` (configuration not stated), the TGI in assay [1], in [2], in assay [3], in [4], in [9] and in [5] was > 100 µM throughout. For the same compound, the TGI in [6], in assay [7], in [8] and in [10] was > 100 µM in each case.

On to `O=C(O)c1cc(-c2ccc3c(O)c(O)ccc3c2)ccc1O`, for which the TGI in assay [1] is > 75 µM; in assay [2], > 75 µM; in assay [3], 26.1 µM; in assay [9] it was 34.9 µM; in assay [5], > 75 µM; in assay [6], > 75 µM. Besides, the TGI is > 75 µM in [7], 54.1 µM in assay [8] and 32.2 µM in assay [10].

Take `Cc1cc2c([N+](=O)[O-])cc3c(c2o1)C(=O)C=CC3=O`: the TGI in assay [1] is 26.6 µM; in assay [2], > 75.1 µM; in assay [3] it was 33.1 µM; in assay [4] it was 3.22 µM; in assay [9], > 36 µM; in [5] it was > 22.1 µM. Moreover, the TGI was 7.23 µM in assay [6], 40.2 µM in assay [8] and > 100 µM in [10].

`CSc1c(C#N)c(N)n(-c2ccc(C)cc2)c(=O)c1C#N`: the TGI in assay [1], in assay [2], in assay [3], in [9], in assay [5] and in assay [6] was > 100 µM in each case. Further, the TGI in assay [7], in assay [8] and in [10] was > 100 µM in each case.

`c1ccc2c(c1)c1c(n2CCOCCN2CCOCC2)CCCC1`: the TGI is > 100 µM in assay [1]; 64.6 µM in [3]; 71.9 µM in assay [4]; 63.6 µM in assay [9]; > 100 µM in [5]; 47.8 µM in assay [6]. Also, the TGI was 29 µM in assay [7], 47 µM in assay [8] and > 100 µM in assay [10].

For the compound `CC(=O)O/N=C/c1c2ccccc2cc2ccccc12`, the TGI in [2], in assay [3], in assay [4], in [9], in assay [5] and in [6] was > 100 µM throughout. The TGI in [7], in [8] and in assay [10] was > 100 µM in each case.

Take `CC(=O)c1cccn1/C=C(\OC(=O)OC(C)(C)C)c1ccc[nH]1`: the TGI in assay [1], in assay [2], in assay [3], in [9], in assay [5] and in assay [6] was > 100 µM each time. The TGI in assay [7], in [8] and in assay [10] was > 100 µM in each case.

Turning to `O=C(Oc1cc(=O)c(OC(=O)c2ccccc2)co1)c1ccccc1`, the TGI in [1], in assay [2], in assay [3], in assay [4], in [9] and in [5] was > 100 µM in each case. Also, the TGI in assay [6], in [7] and in assay [8] was > 100 µM in each case.

Turning to `NCCCN1CCN(CCCNc2ccc3nnn4c5ccccc5c(=O)c2c34)CC1`, the TGI in assay [1] is 33.9 µM; in assay [3], > 100 µM; in assay [4], 96.6 µM; in [9] it was 26.8 µM; in assay [5] it was > 100 µM; in assay [6] it was > 100 µM. The values for the TGI in assay [7], in assay [8] and in [10] were 39.1 µM, 29.1 µM and > 100 µM, respectively.

As for `CC1NC(=O)[C@H](C)N(C)C(=O)[C@@H]2CCCN2C(=O)[C@@H](NC(=O)C(Cc2ccccc2)NC(=O)/C=C/C=C/C=C/C=C/C=C/C(=O)NC2=C(O)CCC2=O)COC(=O)[C@@H]2CCCN2C1=O` (some centres not stated) (X26-[ξF]SP[NMeA][ξA]P; ester 2-C), the TGI in [1], in assay [3], in [4], in assay [9], in assay [5] and in [6] was > 100 µM in each case. The TGI in [7], in [8] and in assay [10] was > 100 µM each time.

For `Clc1ccc(CSCCc2ccncc2)cc1Cl`, the TGI is 52.2 µM in [1]; 49.2 µM in assay [2]; 28.5 µM in assay [3]; 30.4 µM in assay [4]; > 100 µM in assay [5]; > 100 µM in [6]. Besides, the TGI in assay [7] was determined as 42.4 µM; in assay [8], 29.1 µM; in assay [10], 51 µM.
